From patent publication US12018006B2, “Method of producing EPD and analogues thereof” (priority 2017, dated 2024)

Legend:
[1] = tested on: ovarian cancer cell line JC; experiment: In vitro cytotoxic activity, Presto blue assay, ovarian cancer cell line JC; format: cell-based
Procedure: (§1) The cytotoxic activity of the compounds was tested using methods as described earlier (van Haaften et al. Journal of Experimental & Clinical Cancer Research (2015) 34:38). In short, 3×10^4 cells of the ovarian cancer cell line JC (Van Haaften-Day et al. Cancer Res. 1983) were seeded in 24-well plates (Costar, Denmark) in DMEM/F12 medium (Invitrogen) containing 10% of Fetal Calf Serum (FCS, Sigma), 50 U penicillin and 50 μg/mL streptomycin (Invitrogen). The cells were incubated at 37° C. in a 9% CO2 incubator with 95% humidity. After 24 hours, solutions 1-6 were added to the cell cultures.
(§2) Cytotoxic activity of each of the compounds was determined after 72 hours in a standard Presto blue assay (see Van Haaften et al. J Exp Clin Cancer Res. 2015 34(1): 38 for details on the method). Each compound's solution as described above was diluted 100, 200 and 400 times respectively.

[2] = tested on: cervical cancer cell line Siha; experiment: Effect of synthetic EPD on growth of cervical cancer cell line Siha; format: cell-based; conditions: for cancer cell growth reduced by: Siha, FIG. 1B
Procedure: (§3) Further, the effect of synthetic EPD (1-3 μg/mL) was studied on normal fibroblasts and compared with the effect on a cervical cancer cell line Siha (FIG. 1B). […] At a concentration of 1 μg/mL, fibroblast growth was unaffected, whereas cancer cell growth was reduced by almost 20%. At a concentration of […], fibroblast growth was reduced by almost 20%, whereas cancer cell growth was reduced by more than 80%, and at a concentration of 3 μg/mL, fibroblast growth was reduced by 35%, whereas cancer cell growth was reduced by almost 97%.

normal fibroblasts = experiment: Effect of synthetic EPD on growth of normal fibroblasts; format: cell-based; conditions: FIG. 1B
Procedure: as §3

[3] = tested on: ovarian cancer cell line A2780AD; experiment: Growth of multi-drug resistant ovarian cancer cell line A2780AD after 72 hrs; format: cell-based, human; conditions: for growth of the cell line, % of the control value: 72 hrs, control (medium) = 100%
Procedure: as §1, §2
Also the effect of synthetic EPD was tested on an ovarian cancer cell line A2780AD, ATCC using methods as described above, whereby the experiment was ended after 72 hrs. Cell line A2780AD, a multi-drug resistant human ovarian cancer cell line, is resistant to paclitaxel. It was shown that at 1, 1.5 and 2 μg/mL of synthetic EPD, the growth of the cell line after 72 hrs was reduced to 40%, 13% and 8% of the control value (100%, medium), respectively.

normal cells = conditions: cited from earlier work
ovarian cancer = conditions: cited from earlier work

## C=C1C(=O)O[C@H]2CC3=CCCC[C@]3(C)C[C@@H]12 (relative stereo) [racemic mixture of the (mono) methyl analogue, (rel3aS,4aR,9aS)-4α-methyl-3-methylene-3a,4,4a,5,6,7,9,9a-octahydronaphtho[2,3-b]furan-2(3H)-one]
[1]; JC cells, 72 hours, solutions diluted 100, 200 and 400 times, FIG. 1A, compared with natural EPD
  cytotoxic activity: demonstrates cytotoxic activity

## C=C1C(=O)O[C@@H]2CC3=CCC[C@H](C)[C@@]3(C)C[C@H]12 (single isomer, unassigned) [synthetic EPD, eremophila-1(10)-11(13)-dien-12,8β-olide]
[2]; Siha vs normal fibroblasts, 1-3 μg/mL
  dose-dependent effect on cancer cells compared with fibroblasts: much higher on cancer cells than on fibroblasts
[2]; synthetic EPD 1 μg/mL
  cancer cell growth reduced by: ~20%
[2]; synthetic EPD 3 μg/mL
  cancer cell growth reduced by: ~97%
[2]; synthetic EPD 2 g/mL
  cancer cell growth reduced by: more than 80%
[1]; JC as control cell line, FIG. 1C
  inhibition of JC cells compared with paclitaxel: at least as effective as paclitaxel
Normal fibroblasts; synthetic EPD 1 μg/mL
  fibroblast growth: unaffected
Normal fibroblasts; synthetic EPD 2 μg/mL
  fibroblast growth reduced by: ~20%
Normal fibroblasts; synthetic EPD 3 μg/mL
  fibroblast growth reduced by: 35%
[3]; 1 μg/mL
  growth of the cell line, % of the control value: 40%
[3]; 1.5 μg/mL
  growth of the cell line, % of the control value: 13%
[3]; 2 μg/mL
  growth of the cell line, % of the control value: 8%

## C=C1C(=O)O[C@@H]2CC3=CCC[C@H](C)[C@@]3(C)C[C@H]12 [EPD, eremophila-1(10)-11(13)-dien-12,8β-olide]
Normal cells
  cytotoxic effects towards normal cells: not towards normal cells
Ovarian cancer
  cytotoxic effects towards ovarian cancer: potent cytotoxic effects

## CC(=O)O[C@H]1C(=O)[C@@]2(C)[C@H]([C@H](OC(=O)c3ccccc3)[C@]3(O)C[C@H](OC(=O)[C@H](O)[C@@H](NC(=O)c4ccccc4)c4ccccc4)C(C)=C1C3(C)C)[C@]1(OC(C)=O)CO[C@@H]1C[C@@H]2O [paclitaxel, reference compound]
[3]; 0.375 μg/mL
  resistance of cell line A2780AD to the drug: full resistance
